The values below come from patent US20100311741A1, “Bicyclosulfonyl Acid (BCSA) Compounds and Their Use as Therapeutic Agents” (INHIBOX LTD., priority 2007, published 2010).

The term melting point denotes the temperature of the solid-liquid transition. In the case of `CCOc1ccc(N2C(CC(=O)NO)c3ccccc3S2(=O)=O)cc1` (centres unmarked) [Compound (5.33), 2-[2-(4-Ethoxyphenyl)-1,1-dioxo-2,3-dihydro-1H-benzo[d]isothiazol-3-yl]-N-hydroxyacetamide], the melting point is 177 to 178 °C.
The value for `O=C(CC1c2ccccc2S(=O)(=O)N1c1ccc(OCc2ccccn2)cc1)NO` (centres unmarked) [Compound (5.50), 2-{1,1-Dioxo-2-[4-(pyridin-2-ylmethoxy)phenyl]-2,3-dihydro-1H-benzo[d]isothiazol-3-yl}-N-hydroxyacetamide] was > 170 °C (dec.); that for `O=C(CC1c2cc3c(cc2S(=O)(=O)N1c1ccccc1)OCCO3)NO` (centres unmarked) [Compound (5.63), 2-(1,1-Dioxo-2-phenyl-2,3,6,7-tetrahydro-1H-5,8-dioxa-thia-2-aza-cyclopenta[b]naphthalen-3-yl)-N-hydroxyacetamide] was 202 to 204 °C (dec.).
The value for `O=C(CC1c2ccccc2S(=O)(=O)N1c1ccc(OCc2ccccc2)cc1)NO` (centres unmarked) [Compound (5.25), 2-[2-(4-Benzyloxy-phenyl)-1,1-dioxo-2,3-dihydro-1H-benzo[d]isothiazol-3-yl]-N-hydroxyacetamide] was 186 to 187 °C; that for `O=C(CC1c2ccccc2S(=O)(=O)N1c1ccc(-n2ccnc2)cc1)NO` (centres unmarked) [Compound (5.27), 2-[2-(4-Imidazol-1-yl-phenyl)-1,1-dioxo-2,3-dihydro-1H-benzo[d]isothiazol-3-yl]-N-hydroxyacetamide] was 199 to 201 °C (dec.); that for `C#CCCOc1ccc(N2C(CC(=O)NO)c3ccccc3S2(=O)=O)cc1` (centres unmarked) [Compound (5.54), 2-[2-(4-But-3-ynyloxy-phenyl)-1,1-dioxo-2,3-dihydro-1H-benzo[d]isothiazol-3-yl]-N-hydroxyacetamide] was 148 to 150 °C (dec.).
For `Cc1cc(COc2ccc(N3C(CC(=O)NO)c4ccccc4S3(=O)=O)cc2)c2cc(F)ccc2n1` (centres unmarked) [Compound (5.58), 2-{2-[4-(6-Fluoro-2-methyl-quinolin-4-ylmethoxy)-phenyl]-1,1-dioxo-2,3-dihydro-1H-benzo[d]isothiazol-3-yl}-N-hydroxyacetamide] the value was > 140 °C (dec.); for `O=C(CC1c2cccc(C(F)(F)F)c2S(=O)(=O)N1c1ccccc1)NO` (centres unmarked) [Compound 54.3], 187 to 189 °C; for `O=C(CC1c2ccccc2S(=O)(=O)N1c1ccc(-n2cccc2)cc1)NO` (centres unmarked) [Compound (5.26), 2-[1,1-Dioxo-2-(4-pyrrol-1-yl-phenyl)-2,3-dihydro-1H-benzo[d]isothiazol-3-yl]-N-hydroxyacetamide], 192 to 194 °C (dec.).
In the case of `O=C(CC1NS(=O)(=O)c2ccccc21)NO` (centres unmarked) [Compound (5.37), 2-(1,1-Dioxo-2,3-dihydro-1H-benzo[d]isothiazol-3-yl)-N-hydroxyacetamide], the melting point fell in the range of 152 to 154 °C.
For `O=C(NO)C1c2ccccc2S(=O)(=O)N1c1ccccc1` (centres unmarked) [Compound 62.1, 1,1-Dioxo-2-phenyl-2,3-dihydro-1H-benzo[d]isothiazole-3-carboxylic acid hydroxyamide] the value was 188 to 191 °C; for `Cc1nc(-c2ccc(N3C(CC(=O)NO)c4ccccc4S3(=O)=O)cc2)cs1` (centres unmarked) [Compound (5.30), 2-{2-[4-(2-Methylthiazol-4-yl)phenyl]-1,1-dioxo-2,3-dihydro-1H-benzo[d]isothiazol-3-yl}-N-hydroxyacetamide], 179 to 181 °C (dec.); for `CSc1ccc(N2C(CC(=O)NO)c3ccccc3S2(=O)=O)cc1` (centres unmarked) [Compound (5.20), 2-[1,1-Dioxo-2-(4-methylsulfanylphenyl)-2,3-dihydro-1H-benzo[d]isothiazol-3-yl]-N-hydroxyacetamide], 197 to 198 °C (dec.).
`O=C(NO)C1c2c(Cl)cccc2S(=O)(=O)N1c1ccccc1` (centres unmarked) [Compound 62.2, 4-Chloro-1,1-dioxo-2-phenyl-2,3-dihydro-1H-benzo[d]isothiazole-3-carboxylic acid hydroxyamide] had a melting point of 167 to 170 °C.
On to `O=C(CC1c2ccccc2S(=O)(=O)N1c1cccc(F)c1)NO` (centres unmarked) [Compound (5.36), 2-[2-(3-Fluoro-phenyl)-1,1-dioxo-2,3-dihydro-1H-benzo[d]isothiazol-3-yl]-N-hydroxyacetamide], for which the melting point is 145 to 147 °C (dec.).
The value for `O=C(CC1c2ccccc2S(=O)(=O)N1c1ccc(OCc2ccnc3ccccc23)cc1)NO` (centres unmarked) [Compound (5.57), 2-{1,1-Dioxo-2-[4-(quinolin-4-ylmethoxy)phenyl]-2,3-dihydro-1H-benzo[d]isothiazol-3-yl}-N-hydroxyacetamide] was 218 to 220 °C (dec.); that for `COc1cc2c(cc1OC)S(=O)(=O)N(c1ccccc1)C2CC(=O)NO` (centres unmarked) [Compound (5.64), 2-(5,6-Dimethoxy-1,1-dioxo-2-phenyl-2,3-dihydro-1H-benzo[d]isothiazol-3-yl)-N-hydroxyacetamide] was 197 to 199 °C (dec.); that for `COc1ccc(N2C(CC(=O)NO)c3ccccc3S2(=O)=O)cn1` (centres unmarked) [Compound (5.40), 2-[2-(6-Methoxy-pyridin-3-yl)-1,1-dioxo-2,3-dihydro-1Hbenzo[d]isothiazol-3-yl]-N-hydroxyacetamide] was 189 to 190 °C.
For `COc1cccc2c1S(=O)(=O)N(c1ccccc1)C2CC(=O)NO` (centres unmarked) [Compound 54.10, (7-Methoxy-1,1-dioxo-2-phenyl-2,3-dihydro-1H-benzo[d]isothiazol-3-yl)-N-hydroxyacetamide] the value was > 161 °C (dec.); for `Cc1cc(COc2ccc(N3C(CC(=O)NO)c4ccccc4S3(=O)=O)cc2)ccn1` (centres unmarked) [Compound (5.60), 2-{2-[4-(2-Methyl-pyridin-4-ylmethoxy)-phenyl]-1,1-dioxo-2,3-dihydro-1H-benzo[d]isothiazol-3-yl}-N-hydroxyacetamide], > 204 °C (dec.); for `O=C(CC1c2ccccc2S(=O)(=O)N1c1ccc(OCc2ccncc2)cc1)NO` (centres unmarked) [Compound (5.48), 2-{1,1-Dioxo-2-[4-(pyridin-4-ylmethoxy)phenyl]-2,3-dihydro-1H-benzo[d]isothiazol-3-yl}-N-hydroxyacetamide], 212 to 214 °C (dec.).
For `O=C(CC1c2ccccc2S(=O)(=O)N1c1ccc(Oc2ccccc2)cc1)NO` (centres unmarked) [Compound (5.24), 2-[1,1-Dioxo-2-(4-phenoxy-phenyl)-2,3-dihydro-1H-benzo[d]isothiazol-3-yl]-N-hydroxyacetamide] the value was 174 to 175 °C.
As for `COc1ccc2c(c1)C(CC(=O)NO)N(c1ccccc1)S2(=O)=O` (centres unmarked) [Compound (5.62), 2-(5-Methoxy-1,1-dioxo-2-phenyl-2,3-dihydro-1H-benzo[d]isothiazol-3-yl)-N-hydroxyacetamide], the melting point lay within 180 to 182 °C.
On to `O=C(CC1c2c(Cl)cccc2S(=O)(=O)N1c1ccccc1)NO` (centres unmarked) [Compound 54.2, 2-(4-Chloro-1,1-dioxo-2-phenyl-2,3-dihydro-1H-benzo[d]isothiazol-3-yl)-N-hydroxyacetamide], for which the melting point is 204 to 206 °C.
For `O=C(CC1c2ccccc2S(=O)(=O)N1c1ccc(N2CCOCC2)cc1)NO` (centres unmarked) [Compound (5.32), 2-[2-(4-Morpholin-4-ylphenyl)-1,1-dioxo-2,3-dihydro-1H-benzo[d]isothiazol-3-yl]-N-hydroxyacetamide] the value was 204 to 206 °C; for `COc1cc(Cl)cc2c1S(=O)(=O)N(c1ccccc1)C2CC(=O)NO` (centres unmarked) [Compound 54.11, (5-Chloro-7-Methoxy-1,1-dioxo-2-phenyl-2,3-dihydro-1H-benzo[d]isothiazol-3-yl)-N-hydroxyacetamide], > 170 °C (dec.).
For the compound `O=C(CC1c2cccc(Cl)c2S(=O)(=O)N1c1ccccc1)NO` (centres unmarked) [Compound 54.7, 2-(7-Chloro-1,1-dioxo-2-phenyl-2,3-dihydro-1H-benzo[d]isothiazol-3-yl)-N-hydroxyacetamide], the melting point was > 188 °C (dec.).
The value for `O=C(CC1c2ccccc2S(=O)(=O)N1c1cccc(Oc2ccccc2)c1)NO` (centres unmarked) [Compound (5.9), 2-[2-(3-Phenoxyphenyl)-1,1-dioxo-2,3-dihydro-1H-benzo[d]isothiazol-3-yl]-N-hydroxyacetamide] was 181 to 182 °C.
The value for `Cc1cc(COc2ccc(N3C(CC(=O)NO)c4ccccc4S3(=O)=O)cc2)cc(C)n1` (centres unmarked) [Compound (5.61), 2-{2-[4-(2,6-Dimethyl-pyridin-4-ylmethoxy)phenyl]-1,1-dioxo-2,3-dihydro-1H-benzo[d]isothiazol-3-yl}-N-hydroxyacetamide] was > 210 °C (dec.); that for `O=C(CC1c2ccc(Br)cc2S(=O)(=O)N1c1ccccc1)NO` (centres unmarked) [Compound (5.68), 2-(6-Bromo-1,1-dioxo-2-phenyl-2,3-dihydro-1H-benzo[d]isothiazol-3-yl)-N-hydroxyacetamide] was 182 to 183 °C.
For `COc1cccc(N2C(CC(=O)NO)c3ccccc3S2(=O)=O)c1` (centres unmarked) [Compound (5.7), 2-[2-(3-Methoxyphenyl)-1,1-dioxo-2,3-dihydro-1H-benzo[d]isothiazol-3-yl]-N-hydroxyacetamide] the value was 147 to 148 °C; for `C=CCOc1ccc(N2C(CC(=O)NO)c3ccccc3S2(=O)=O)cc1` (centres unmarked) [Compound (5.47), 2-[2-(4-Allyloxy-phenyl)-1,1-dioxo-2,3-dihydro-1H-benzo[d]isothiazol-3-yl]-N-hydroxyacetamide], 166 to 168 °C (dec.).
For the compound `COc1ccc(N2C(CC(=O)NO)c3ccccc3S2(=O)=O)cc1` (centres unmarked) [Compound (5.8), 2-[2-(4-Methoxyphenyl)-1,1-dioxo-2,3-dihydro-1H-benzo[d]isothiazol-3-yl]-N-hydroxyacetamide], the melting point is 185 to 186 °C.
The value for `O=C(CC1c2ccccc2S(=O)(=O)N1c1ccc(-n2cncn2)cc1)NO` (centres unmarked) [Compound (5.28), 2-[1,1-Dioxo-2-(4-[1,2,4]triazol-1-yl-phenyl)-2,3-dihydro-1H-benzo[d]isothiazol-3-yl]-N-hydroxyacetamide] was 205 to 207 °C (dec.); that for `C#CCOc1ccc(N2C(CC(=O)NO)c3ccccc3S2(=O)=O)cc1` (centres unmarked) [Compound (5.53), 2-[1,1-Dioxo-2-(4-prop-2-ynyloxy-phenyl)-2,3-dihydro-1H-benzo[d]isothiazol-3-yl]-N-hydroxyacetamide] was 155 to 157 °C (dec.).
